Drawing on PubChem BioAssay (NCI), this text covers TGI for 13 molecules.

Assay in all cases: DTP human tumour cell line panel, 48 h
For test [1], the system named is BT-549 breast.
In test [2] the test system is SK-MEL-2 melanoma.
Test [3] relates to CCRF-CEM leukemia.
In test [4] the test system is NCI-H460 lung.
Test [5] has as its system MDA-MB-231 breast.
Test [6] deals with KM12 colon.
Test [7] deals with SF-295 CNS.
Test [8] relates to EKVX NSCLC.
Test [9] relates to CAKI-1 renal.
For test [10], the system named is OVCAR-3 ovarian.
In test [11] the test system is OVCAR-5 ovarian.
Test [12] relates to UO-31 renal.
Test [13] relates to RPMI-8226 leukemia.
Test [14] has as its system A549 NSCLC.
In test [15] the test system is M14 melanoma.
The subject of test [16] is SK-MEL-5 melanoma.
In test [17] the test system is HCT-15 colon.
The subject of test [18] is COLO 205 colon.
Test [19] relates to NCI-H23 lung.
Test [20] has as its system MCF7 breast.

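Five concentrations, 48 hours, 96-well plates. Definition used: TGI = concentration required for complete inhibition of growth.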

One may read the TGI as the concentration giving total growth inhibition. Low values mean more potent growth arrest, high ones less potent growth arrest. As for `CC(C)=CCC[C@@H](C)C1=C(O)C(Nc2ccccc2F)=C(C)C(=O)C1=O`, the TGI in test [1] was above 79.7 µM; in test [2] it was 68.3 µM; in test [3] it was 5.86 µM; in test [4] it was above 100 µM; in [5], above 100 µM; in test [6], above 100 µM. The TGI in test [7] was 30.4 µM; in test [8], above 100 µM; in test [9], 48.2 µM; in test [10] it was above 30.4 µM; in test [11], above 100 µM; in test [12], 47.7 µM. The TGI in [13] is above 89.1 µM; in test [14] it was above 77.5 µM; in [15], above 57.6 µM; in test [16], 42.3 µM; in test [17], above 70.2 µM; in [18], above 68.9 µM. Moreover, the TGI in [19] is above 56.8 µM; in test [20], above 90 µM.

As to `O=C(Nc1ccc(Cl)cc1)c1cc(S(=O)(=O)NC2=NC(c3ccccc3)c3cc(Cl)ccc3N2)c(SSc2cc(Cl)c(C(=O)Nc3ccc(Cl)cc3)cc2S(=O)(=O)NC2=NC(c3ccccc3)c3cc(Cl)ccc3N2)cc1Cl` (centres undefined), the TGI in test [1] is above 100 µM; in test [2] it was above 100 µM; in [3] it was above 40.1 µM; in test [4], above 100 µM; in [5], above 100 µM; in test [6], above 100 µM. Besides, the TGI in [7], in test [8], in [9], in test [10], in test [11] and in test [12] was above 100 µM each time. Moreover, the TGI in test [13], in test [14], in test [15], in test [16], in [17] and in test [18] was above 100 µM in each case. Moreover, the TGI in test [19] and in test [20] was above 100 µM throughout.

Turning to `CCCCCCCCC[C@@H]1C[C@@H]2CCC3C(C(=O)OCCCCNC(=O)OCc4ccccc4)=C(C)NC(=N1)N32` (some centres undefined), the TGI stood at 12.6 µM in test [1]; 4.84 µM in [2]; 8.93 µM in [3]; 13.3 µM in [4]; 6.09 µM in test [5]; 13.7 µM in test [6]. Besides, the TGI in test [7] amounted to 11.2 µM; in test [8] it was 7.76 µM; in [9], 14.9 µM; in test [10], 14.9 µM; in test [11], 21.4 µM; in test [12], 13.7 µM. The TGI in test [13] was found to be 4.44 µM; in [14] it was 23.3 µM; in test [15], 6.97 µM; in test [16], 2.93 µM; in [17], 8.06 µM; in test [18], 2.97 µM. Moreover, the TGI in [19] worked out at 6.78 µM; in test [20] it was 4.72 µM.

Consider `COC(=O)C1=C2Nc3ccccc3C23CCN2C(O)C4(CC5CC67CCOC6CCN6CCC8(c9cccc(OC)c9N(C4)C58O)C67)C4OCCC4(C1)C23` (centres undefined), for which the TGI in test [1] is above 100 µM; in test [2], above 100 µM; in [3] it was above 100 µM; in [4], above 100 µM; in [5] it was 61.3 µM; in test [6] it was above 100 µM. Besides, the TGI in [7], in test [8], in test [9], in test [10], in [11] and in test [12] was above 100 µM throughout. In addition, the TGI in test [13], in [14], in test [15], in test [16], in test [17] and in [18] was above 100 µM throughout. Further, the TGI in test [19] and in test [20] was above 100 µM throughout.

On to `Nc1ccc(S(=O)(=O)c2ccc(N=[N+]([O-])c3ccc(S(=O)(=O)c4ccc(N)cc4)cc3)cc2)cc1`, for which the TGI in [1] is above 65.6 µM; in test [2] it was above 94.2 µM; in test [3], above 100 µM; in [4], above 100 µM; in test [5], above 78.1 µM; in [6], above 100 µM. Also, the TGI was above 100 µM in test [7]; above 100 µM in [8]; above 100 µM in test [9]; above 56 µM in test [10]; above 100 µM in test [11]; above 100 µM in test [12]. The TGI in test [13], in test [14], in test [15], in [16], in [17] and in test [18] was above 100 µM throughout. The TGI in [19] was above 82.8 µM; in test [20], above 100 µM.

Regarding `CN1CCN(CCCCNc2cc3c4ccccc4c(NCCCCN4CCN(C)CC4)cc3c3ccccc23)CC1`, the TGI in [1] was determined as 14.9 µM; in test [2], 16.5 µM; in test [3], 3.07 µM; in test [4] it was 3.2 µM; in test [5], 2.89 µM; in test [6], 3.06 µM. Besides, the TGI in test [7] came to 3.77 µM; in test [8], 18.7 µM; in test [9], 25.6 µM; in test [10], 8.5 µM; in test [11], 12.5 µM; in test [12], 11.8 µM. The TGI was found to be 4.14 µM in [13]; 3.21 µM in test [14]; 2.16 µM in test [15]; 2.85 µM in test [16]; 2.88 µM in [17]; 14.3 µM in test [18]. The molecule also showed a TGI in [20] of 2.71 µM.

As to `COC(=O)C1(Cc2ccc3c(c2)CCC3)Cc2cc3c(cc2C1=O)CCC3` (centres undefined), the TGI in [1] was 39.2 µM; in test [2] it was above 31.6 µM; in test [3], above 46.4 µM; in test [4] it was above 46.4 µM; in test [5] it was above 46.4 µM; in test [6], above 46.4 µM. The TGI in test [7] was above 46.4 µM; in test [8] it was above 46.4 µM; in test [9] it was above 31.6 µM; in test [10], above 46.4 µM; in test [11], above 46.4 µM; in [12], above 46.4 µM. For the same molecule, the TGI in test [13] is 31.3 µM; in test [14], above 46.4 µM; in test [15], above 46.4 µM; in test [16] it was 32.3 µM; in [17], above 46.4 µM; in test [18], 29.2 µM. In addition, the TGI in test [19] and in test [20] was above 46.4 µM throughout.

For the molecule `CC1=NN(c2cccc(Cl)c2)C2(C1)SCC(=O)N2c1nc2ccccc2s1` (centres undefined), the TGI in [1] was above 100 µM; in test [2], 49.2 µM; in test [3], 62.6 µM; in [4], 58.8 µM; in [5], 40.3 µM; in [6], 69.2 µM. Also, the TGI in test [7] was 74.9 µM; in test [8], above 100 µM; in test [9] it was above 100 µM; in [10], 58.9 µM; in test [11], above 100 µM; in test [12] it was 57.4 µM. Besides, the TGI in test [13] was 38.6 µM; in test [14] it was above 100 µM; in test [15], 86.5 µM; in [16] it was 39.4 µM; in test [17] it was above 100 µM; in test [18], 32.5 µM. For the same molecule, the TGI in [19] was 84.5 µM; in [20] it was above 100 µM.

In the case of `S=C1NC2=C(COC/C2=C\c2ccccc2Cl)C(c2ccccc2Cl)N1` (centres undefined), the TGI is above 100 µM in [1]; 67.1 µM in test [2]; 45.1 µM in [3]; above 100 µM in [4]; above 100 µM in test [5]; 28.6 µM in test [6]. For the same molecule, the TGI in test [7], in test [8], in test [9], in test [10], in test [11] and in test [12] was above 100 µM each time. For the same molecule, the TGI in [13] was above 100 µM; in test [15], above 100 µM; in [16], 34.6 µM; in test [17] it was above 100 µM; in test [18], 33.5 µM; in test [19], above 100 µM. The same molecule showed a TGI in test [20] of 63.1 µM.

In the case of `CCOc1ccc(C(c2c(O)c3ccccc3oc2=O)c2c(O)c3ccccc3oc2=O)cc1`, the TGI in [1] is above 100 µM; in test [2] it was 59.1 µM; in test [3], above 100 µM; in [5], above 100 µM; in test [6], above 100 µM; in [7], above 100 µM. The TGI in [8] is above 100 µM; in [9] it was above 100 µM; in test [10], above 100 µM; in [11], above 100 µM; in test [12] it was above 100 µM; in test [13], 93.8 µM. Moreover, the TGI in test [14], in test [15], in test [16], in test [17], in test [18] and in test [19] was above 100 µM throughout. The molecule further had a TGI in test [20] above 100 µM.

With `COc1ccc(-c2cc(-c3ccc(Nc4ccnc5cc(C(F)(F)F)ccc45)cc3)[nH]c(=O)c2C#N)cc1`, the TGI in test [1] was above 94.9 µM; in test [2] it was above 100 µM; in [3], above 100 µM; in [4], above 100 µM; in test [5], above 82.9 µM; in [6], above 100 µM. Besides, the TGI in test [7] is above 57.6 µM; in test [8], above 100 µM; in [9], above 100 µM; in test [10], above 100 µM; in test [11] it was above 100 µM; in test [13] it was above 100 µM. The TGI in [14] is above 100 µM; in test [15], above 100 µM; in test [16] it was above 100 µM; in test [17] it was above 100 µM; in test [18], above 63.7 µM; in [19] it was above 60.8 µM. Moreover, the TGI in [20] was above 100 µM.

For `CCOc1ccc(-n2c(=O)n3c(Nc4ccc(Cl)cc4)nc4c(c(=O)n(C)c(=O)n4C)n3c2=O)cc1`, the TGI is 64.3 µM in test [1]; above 100 µM in test [2]; 52.9 µM in test [3]; 36.1 µM in test [4]; 35.1 µM in test [5]; 30.9 µM in test [6]. Moreover, the TGI is above 100 µM in test [7]; 89.6 µM in test [8]; above 100 µM in [9]; 52.5 µM in test [10]; above 100 µM in test [11]; above 100 µM in test [12]. Besides, the TGI in test [13] is 61.4 µM; in test [14], above 100 µM; in [16], 36 µM; in test [17], 42 µM; in test [18] it was 46.4 µM; in test [19], 64.2 µM. In addition, the TGI in test [20] was above 100 µM.

For the molecule `O=C1O[C@H](COC(=O)c2ccccc2)[C@@H](OC(=O)c2ccccc2)C=C1OC(=O)c1ccccc1`, the TGI in [1] is 43.7 µM; in test [2], 50.8 µM; in test [3], 41.9 µM; in test [4] it was 36.6 µM; in test [5] it was 36.2 µM; in test [6], above 100 µM. For the same molecule, the TGI was 34.8 µM in [7]; 34.3 µM in [8]; 51.2 µM in [9]; 35.9 µM in test [10]; 40.9 µM in test [11]; above 100 µM in test [12]. The TGI in [13] worked out at 71.8 µM; in test [15] it was 31.9 µM; in test [16] it was 36.2 µM; in test [17], 39.6 µM; in test [18] it was 38.3 µM; in test [19], 42.6 µM. The molecule further yielded a TGI in test [20] of 91.3 µM.
